# Key:
# Assay in all cases: MTT cell proliferation assay
# Format in all cases: cell-based
# BL-2 cells = conditions: BL2, 72-hour MTT
# Method: (§1) The MTT cell proliferation assay was used to study the cytotoxic properties of the compounds. The assay was performed according to the method described by Roche Molecular Biochemicals, with minor modifications. The assay is based on the cleavage of the tetrazolium salt, MTT, in the presence of an electron-coupling reagent. The water-insoluble formazan salt produced must be solubilized in an additional step. Cells grown in a 96-well tissue culture plate were incubated with the MTT solution for approximately 4 hours. After this incubation period, a water-insoluble formazan dye formed. After solubilization, the formazan dye was quantitated using a scanning multi-well spectrophotometer (ELISA reader). […] The cells were seeded at 5,000-10,000 cells in each well of 96-well plate in 100 μL of fresh culture medium and were allowed to attach overnight. The stock solutions of the compounds were diluted in 100 μL cell culture medium to obtain eight concentrations of each test compound, ranging from 1 nM to 30 μM. […] All optical densities were measured at 490 nm using a Vmax Kinetic Microplate Reader (Molecular Devices). In most cases, the assay was performed in duplicate and the results were presented as a mean percent inhibition to the negative control±SE. The following formula was used to calculate the percent of inhibition: Inhibition (%)=(1−(ODo/OD))×100.
# (§2) Compounds 504, 510, 525 and 585 were further tested against selected solid and hematological cancer cell lines and selected normal cell lines in a 72-hour MTT cell proliferation assay.
# BT-20 cells = conditions: Homo sapiens, 72-hour MTT
# Method: as §1, §2
# BT-474 cells = conditions: Homo sapiens, 72-hour MTT
# Method: as §1, §2
# CAMA-1 cells = conditions: Homo sapiens, 72-hour MTT
# Method: as §1, §2
# Calu-3 cells = conditions: Homo sapiens, 72-hour MTT
# Method: as §1, §2
# Calu-6 cells = conditions: Homo sapiens, 72-hour MTT
# Method: as §1, §2
# DU-4475 cells = conditions: Homo sapiens, 72-hour MTT
# Method: as §1, §2
# HCC-1428 cells = conditions: Homo sapiens, HCC1428, 72-hour MTT
# Method: as §1, §2
# HCC-2935 cells = conditions: Homo sapiens, HCC2935, 72-hour MTT
# Method: as §1, §2
# HCI-H358 cells = conditions: 72-hour MTT
# Method: as §1, §2
# HPAC cells = conditions: Homo sapiens, 72-hour MTT
# Method: as §1, §2
# HTB-38 cells = conditions: 72-hour MTT
# Method: as §1, §2
# Hs738.st cells = conditions: 72-hour MTT
# Method: as §1, §2
# HuCCT-1 cells = conditions: Homo sapiens, 72-hour MTT
# Method: as §1, §2
# LS-180 cells = conditions: Homo sapiens, LS180, 72-hour MTT
# Method: as §1, §2
# MCF-10A cells = conditions: Homo sapiens, 72-hour MTT
# Method: as §1, §2
# MCF-12A cells = conditions: Homo sapiens, 72-hour MTT
# Method: as §1, §2
# MHCC97H cells = conditions: Homo sapiens, 72-hour MTT
# Method: as §1, §2
# MINO cells = conditions: Homo sapiens, 72-hour MTT
# Method: as §1, §2
# MM1R cells = conditions: MM.1R, 72-hour MTT
# Method: as §1, §2
# MiaPaCa-2 cells = conditions: Homo sapiens, MIA PaCa-2, 72-hour MTT
# Method: as §1, §2
# NCI-H1993 cells = conditions: Homo sapiens, 72-hour MTT
# Method: as §1, §2
# NCI-H2030 cells = conditions: Homo sapiens, 72-hour MTT
# Method: as §1, §2
# NCI-H2170 cells = conditions: Homo sapiens, 72-hour MTT
# Method: as §1, §2
# NCI-H508 cells = conditions: Homo sapiens, 72-hour MTT
# Method: as §1, §2
# NCI-H520 cells = conditions: Homo sapiens, 72-hour MTT
# Method: as §1, §2
# NCI-H69 cells = conditions: Homo sapiens, 72-hour MTT
# Method: as §1, §2
# NCI-H929 cells = conditions: Homo sapiens, 72-hour MTT
# Method: as §1, §2
# PATU-8902 cells = conditions: 72-hour MTT
# Method: as §1, §2
# PATU-8988T cells = conditions: Homo sapiens, 72-hour MTT
# Method: as §1, §2
# PBMC = conditions: 72-hour MTT
# Method: as §1, §2
# PL-45 cells = conditions: PL45, 72-hour MTT
# Method: as §1, §2
# Panc-1 cells = conditions: Homo sapiens, 72-hour MTT
# Method: as §1, §2
# Pfieffer cells = conditions: 72-hour MTT
# Method: as §1, §2
# RL cells = conditions: Homo sapiens, 72-hour MTT
# Method: as §1, §2
# SHP-77 cells = conditions: Homo sapiens, SHP77, 72-hour MTT
# Method: as §1, §2
# SNU-398 cells = conditions: Homo sapiens, 72-hour MTT
# Method: as §1, §2
# SW-1116 cells = conditions: Homo sapiens, 72-hour MTT
# Method: as §1, §2
# SW-1417 cells = conditions: Homo sapiens, SW1417, 72-hour MTT
# Method: as §1, §2
# SW-837 cells = conditions: Homo sapiens, SW837, 72-hour MTT
# Method: as §1, §2
# T47D cells = conditions: Homo sapiens, 72-hour MTT
# Method: as §1, §2
smiles,measurement,setting,value
"Nc1ccc(/C=C/C(=O)NCc2cc3cc(-c4ccc(C(=O)N5CCC(F)(F)CC5)cn4)cc(C(F)(F)F)c3o2)cn1 [Compound 585, (E)-3-(6-aminopyridin-3-yl)-N-((5-(5-(4,4-difluoropiperidine-1-carbonyl)pyridin-2-yl)-7-(trifluoromethyl)benzofuran-2-yl)methyl)acrylamide]",IC50,BL-2 cells,180 nM
same,IC50,BT-20 cells,540 nM
same,IC50,BT-474 cells,6.47 µM
same,IC50,CAMA-1 cells,1060 nM
same,IC50,Calu-3 cells,330 nM
same,IC50,Calu-6 cells,350 nM
same,IC50,DU-4475 cells,90 nM
same,IC50,HCC-1428 cells,4.4 µM
same,IC50,HCC-2935 cells,4.39 µM
same,IC50,HCI-H358 cells,800 nM
same,IC50,HPAC cells,380 nM
same,IC50,HTB-38 cells,> 10 µM
same,IC50,Hs738.st cells,450 nM
same,IC50,HuCCT-1 cells,60 nM
same,IC50,LS-180 cells,150 nM
same,IC50,MCF-10A cells,140 nM
same,IC50,MCF-12A cells,380 nM
same,IC50,MHCC97H cells,> 10 µM
same,IC50,MINO cells,110 nM
same,IC50,MM1R cells,190 nM
same,IC50,MiaPaCa-2 cells,880 nM
same,IC50,NCI-H1993 cells,> 10 µM
same,IC50,NCI-H2030 cells,300 nM
same,IC50,NCI-H2170 cells,1260 nM
same,IC50,NCI-H508 cells,1460 nM
same,IC50,NCI-H520 cells,20 nM
same,IC50,NCI-H69 cells,80 nM
same,IC50,NCI-H929 cells,930 nM
same,IC50,PATU-8902 cells,510 nM
same,IC50,PATU-8988T cells,540 nM
same,IC50,PBMC,2200 nM
same,IC50,PL-45 cells,1010 nM
same,IC50,Panc-1 cells,840 nM
same,IC50,Pfieffer cells,80 nM
same,IC50,RL cells,210 nM
same,IC50,SHP-77 cells,210 nM
same,IC50,SNU-398 cells,4.42 µM
same,IC50,SW-1116 cells,970 nM
same,IC50,SW-1417 cells,1270 nM
same,IC50,SW-837 cells,600 nM
same,IC50,T47D cells,40 nM

# From patent US12331040B2 (Karyopharm Therapeutics Inc., priority 2013, dated 2025)
